Laboratory results taken from patent US20030206932A1, “Novel topical compositions” (priority 1994, published 2003).

Assay: Solubility parameter δ estimated from tabulated molecular substituent constants (Fedors)
Conditions: difference to the solubility parameter of retinol
From the text: Solubility attributes of two or more materials with respect to each other are generally reflected in the “solubility parameter”, δ, which is expressed in the units (cal/cm^3)^1/2.
The value of the solubility parameter can be estimated from tabulated molecular substituent constants such as those described by Fedors. These substituent constants can be found in Solubility and Related Properties by Kenneth C. […] Generally, according to Textbook of Polymer Science, 2nd Ed., Billmeyer, solubility can be expected if the difference of the solubility parameters of two materials is less than about 2 units.

Row | Compound | δN − δRETINOL
1 | CC1CC(OC(=O)c2ccccc2O)CC(C)(C)C1 (stereo not drawn) [Homomenthyl Salicylate] | 1.14 (cal/cm^3)^1/2
2 | CC1CCC(C(C)C)C(OC(=O)c2ccccc2N)C1 (stereo not drawn) [Menthyl Anthranilate] | 0.13 (cal/cm^3)^1/2
3 | CCCCC(CC)COC(=O)C(C#N)=C(c1ccccc1)c1ccccc1 (stereo not drawn) [Octocrylene] | 0.74 (cal/cm^3)^1/2
4 | CCCCC(CC)COC(=O)c1ccc(N(C)C)cc1 (stereo not drawn) [Octyl Dimethyl PABA] | −0.33 (cal/cm^3)^1/2
5 | CCCCC(CC)COC(=O)C=Cc1ccc(OC)cc1 (stereo not drawn) [Octyl Methoxy Cinnamate] | −0.29 (cal/cm^3)^1/2
6 | DEA Methoxysalicylate | 2.94 (cal/cm^3)^1/2
